Assay results as given in ChEMBL document CHEMBL1201862, “PubChem BioAssay data set” (2004).
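Values below derive from 48-hour exposures of cells grown in 96-well plates, with endpoints linearly interpolated between the two concentrations bracketing the appropriate inhibition level. Abbreviation: GI50, concentration required for 50% inhibition of growth.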 Calls of active or inactive are those of the source. No stated cut-off is given here; in the data, active = GI50 up to about 1.1 µM and inactive = higher.

Tests used:
Test in all cases: NCI anticancer screen, dose series, 48 h
OVCAR-4 = tested on: OVCAR-4
SN12C = tested on: SN12C
HCC 2998 = tested on: HCC 2998
K562 = tested on: K562
OVCAR-3 = tested on: OVCAR-3
MDA-N = tested on: MDA-N
NCI-H460 = tested on: NCI-H460
MOLT-4 = tested on: MOLT-4
IGROV-1 = tested on: IGROV-1
786-0 = tested on: 786-0
M14 = tested on: M14
EKVX = tested on: EKVX
RXF 393 = tested on: RXF 393
A498 = tested on: A498
A549 = tested on: A549
HCT-116 = tested on: HCT-116
MDA-MB-231 = tested on: MDA-MB-231
U-251 = tested on: U-251
HL-60 = tested on: HL-60
SNB-75 = tested on: SNB-75

Measured: GI50

OC1COC(OCc2ccccc2)C(O)C1O (stereo not given)
inactive: OVCAR-4 > 100 µM | SN12C > 100 µM | HCC 2998 > 100 µM | K562 > 100 µM | OVCAR-3 > 100 µM | MDA-N > 100 µM | NCI-H460 > 100 µM | MOLT-4 > 100 µM | IGROV-1 > 100 µM | 786-0 > 100 µM | M14 > 100 µM | EKVX > 100 µM | RXF 393 > 100 µM | A498 > 100 µM | A549 > 100 µM | HCT-116 > 100 µM | MDA-MB-231 > 100 µM | U-251 > 100 µM | HL-60 > 100 µM

CC1(Cc2cc3c(cc2C2(c4ccc([N+](=O)[O-])cc4)OCCO2)OCO3)OCCO1
inactive: OVCAR-4 50.2 µM | SN12C > 100 µM | HCC 2998 > 100 µM | K562 61.9 µM | OVCAR-3 69.2 µM | MDA-N > 100 µM | NCI-H460 59.8 µM | MOLT-4 32.7 µM | IGROV-1 51.1 µM | 786-0 > 100 µM | M14 > 100 µM | EKVX > 100 µM | RXF 393 86.1 µM | A498 > 100 µM | A549 43.8 µM | HCT-116 > 100 µM | MDA-MB-231 52.6 µM | U-251 71.3 µM | HL-60 > 100 µM

NCCC(=O)N[C@H](Cc1cc(O)c(O)c(SCC(NC(=O)CC[C@H](N)C(=O)O)C(=O)NCC(=O)O)c1)C(=O)O (stereo not given in full)
inactive: OVCAR-4 > 50 µM | SN12C > 50 µM | HCC 2998 > 50 µM | K562 > 50 µM | MDA-N > 50 µM | NCI-H460 > 50 µM | IGROV-1 > 50 µM | 786-0 > 50 µM | M14 > 50 µM | EKVX > 50 µM | RXF 393 > 50 µM | SNB-75 > 50 µM | A498 > 50 µM | A549 > 50 µM | HCT-116 > 50 µM | MDA-MB-231 > 50 µM | U-251 > 50 µM

CCCCC(=O)Nc1ccc2cc(C(=O)OC)c(ON3C(=O)c4ccccc4C3=O)nc2n1
inactive: OVCAR-4 28.1 µM | SN12C 28.9 µM | HCC 2998 22.6 µM | K562 33.2 µM | OVCAR-3 37.1 µM | MDA-N 22.3 µM | NCI-H460 15.3 µM | MOLT-4 28.9 µM | IGROV-1 16.3 µM | 786-0 17 µM | M14 17.9 µM | EKVX 33.1 µM | RXF 393 20.5 µM | SNB-75 28.6 µM | A498 27.4 µM | A549 27.2 µM | HCT-116 15.7 µM | MDA-MB-231 38.9 µM | U-251 26.5 µM

COc1cc2c(cc1OC)C1CN3CCCC3C(O)C1c1cc(OC)c(OC)cc1-2 (stereo not given)
inactive: OVCAR-4 > 100 µM | SN12C > 100 µM | HCC 2998 > 100 µM | K562 > 100 µM | MDA-N > 100 µM | NCI-H460 > 100 µM | MOLT-4 > 100 µM | IGROV-1 > 100 µM | 786-0 > 100 µM | M14 > 100 µM | EKVX > 100 µM | RXF 393 82.8 µM | A498 > 100 µM | A549 > 100 µM | HCT-116 > 100 µM | MDA-MB-231 > 100 µM | U-251 > 100 µM | HL-60 > 100 µM

COc1ccccc1Cn1c2c(c3cc(O)ccc31)C(=O)c1ccccc1C2=O
inactive: OVCAR-4 3.21 µM | SN12C 22.8 µM | K562 > 100 µM | OVCAR-3 28.9 µM | MDA-N > 100 µM | NCI-H460 26.2 µM | MOLT-4 > 100 µM | IGROV-1 16.6 µM | 786-0 13.3 µM | M14 > 100 µM | RXF 393 2.6 µM | SNB-75 19.2 µM | A498 93.8 µM | A549 19.5 µM | HCT-116 23.8 µM | MDA-MB-231 12.4 µM | U-251 16 µM | HL-60 > 100 µM

Clc1nc(Cl)c(CBr)c(Cl)n1
inactive: OVCAR-4 6.34 µM | SN12C 2.63 µM | HCC 2998 10.8 µM | K562 2 µM | OVCAR-3 5.45 µM | MDA-N 3.25 µM | NCI-H460 4.3 µM | MOLT-4 1.45 µM | IGROV-1 4.41 µM | 786-0 2.24 µM | M14 2.91 µM | EKVX 22.1 µM | RXF 393 6.85 µM | SNB-75 8.83 µM | A498 18.1 µM | A549 16 µM | HCT-116 2.48 µM | MDA-MB-231 1.9 µM | U-251 4.06 µM

CN(C)NC(=S)Nc1ccccc1Br
inactive: OVCAR-4 > 100 µM | K562 > 100 µM | OVCAR-3 > 100 µM | MDA-N > 100 µM | NCI-H460 > 100 µM | MOLT-4 > 100 µM | IGROV-1 > 100 µM | 786-0 > 100 µM | M14 > 100 µM | EKVX > 100 µM | RXF 393 > 100 µM | SNB-75 46.5 µM | A498 > 100 µM | A549 > 100 µM | HCT-116 > 100 µM | MDA-MB-231 > 100 µM | U-251 > 100 µM | HL-60 > 100 µM

O=C1NC(N2CCOCC2)=N/C1=C\c1ccccc1O
inactive: OVCAR-4 > 100 µM | SN12C > 100 µM | K562 > 100 µM | OVCAR-3 > 100 µM | MDA-N > 100 µM | MOLT-4 > 100 µM | IGROV-1 > 100 µM | 786-0 > 100 µM | M14 > 100 µM | EKVX > 100 µM | RXF 393 > 100 µM | SNB-75 > 100 µM | A498 > 100 µM | A549 > 100 µM | HCT-116 > 100 µM | MDA-MB-231 > 100 µM | U-251 > 100 µM | HL-60 58.1 µM

FC(F)(Sc1ncc[nH]1)c1nc2ccccc2o1
inactive: OVCAR-4 > 100 µM | SN12C > 100 µM | HCC 2998 > 100 µM | K562 > 100 µM | OVCAR-3 > 100 µM | MDA-N > 100 µM | NCI-H460 > 100 µM | MOLT-4 > 100 µM | IGROV-1 > 100 µM | 786-0 > 100 µM | M14 > 100 µM | RXF 393 > 100 µM | SNB-75 > 100 µM | A498 > 100 µM | A549 > 100 µM | HCT-116 > 100 µM | MDA-MB-231 > 100 µM | U-251 > 100 µM

BrCc1ccc(CBr)c2c1-c1c(CBr)ccc3ccc(CBr)c-2c13
inactive: OVCAR-4 > 100 µM | SN12C > 100 µM | HCC 2998 > 100 µM | K562 99.1 µM | OVCAR-3 > 100 µM | MDA-N > 100 µM | NCI-H460 > 100 µM | MOLT-4 33.8 µM | IGROV-1 > 100 µM | 786-0 > 100 µM | M14 > 100 µM | EKVX > 100 µM | SNB-75 > 100 µM | A498 > 100 µM | A549 > 100 µM | HCT-116 98.6 µM | MDA-MB-231 > 100 µM | U-251 49.8 µM | HL-60 40.6 µM

CCOC1Oc2ccccc2-c2nc(N)ncc21 (stereo not given)
inactive: OVCAR-4 > 100 µM | SN12C 77.1 µM | OVCAR-3 57 µM | MDA-N 31.6 µM | NCI-H460 24.9 µM | MOLT-4 52.5 µM | IGROV-1 43.6 µM | 786-0 58.7 µM | M14 56.8 µM | EKVX 45.1 µM | RXF 393 37.7 µM | SNB-75 34 µM | A498 22.7 µM | A549 45.8 µM | HCT-116 36.5 µM | MDA-MB-231 99.3 µM | U-251 65.6 µM | HL-60 20.8 µM

CC1C2CC(CC(=O)N2)C1(C)C (stereo not given)
inactive: OVCAR-4 > 100 µM | SN12C > 100 µM | HCC 2998 > 100 µM | K562 > 100 µM | OVCAR-3 > 100 µM | MDA-N > 100 µM | NCI-H460 > 100 µM | IGROV-1 > 100 µM | 786-0 > 100 µM | M14 > 100 µM | EKVX > 100 µM | RXF 393 > 100 µM | SNB-75 > 100 µM | A498 > 100 µM | A549 > 100 µM | HCT-116 > 100 µM | MDA-MB-231 > 100 µM | U-251 > 100 µM | HL-60 > 100 µM

O=C1NC(c2c(Cl)cccc2Cl)Nc2ccccc21 (stereo not given)
inactive: OVCAR-4 > 100 µM | SN12C 65.6 µM | OVCAR-3 50.1 µM | MDA-N 21.5 µM | NCI-H460 26.5 µM | MOLT-4 47.6 µM | IGROV-1 21.2 µM | 786-0 54.3 µM | M14 34.8 µM | EKVX 56 µM | RXF 393 70 µM | SNB-75 2.89 µM | A498 85.7 µM | A549 54.6 µM | HCT-116 25.4 µM | MDA-MB-231 30.5 µM | U-251 36.3 µM | HL-60 18 µM

CC(C(=O)c1ccncc1)c1ccccn1 (stereo not given)
inactive: OVCAR-4 > 100 µM | SN12C > 100 µM | HCC 2998 > 100 µM | K562 > 100 µM | OVCAR-3 > 100 µM | MDA-N > 100 µM | NCI-H460 > 100 µM | IGROV-1 > 100 µM | 786-0 > 100 µM | M14 > 100 µM | EKVX > 100 µM | RXF 393 > 100 µM | A498 > 100 µM | A549 > 100 µM | HCT-116 > 100 µM | MDA-MB-231 > 100 µM | U-251 > 100 µM | HL-60 > 100 µM
